Compared with `C=C1CC2C(CCC3(C)C2CCC3(OC)C(=O)COC(C)=O)C2(C)CCC(=O)C=C12` (stereo unspecified), `COc1cc(N)c(Cl)cc1C(=O)N[C@H]1CCN(C2CCC3(CC2)OCC(C)(C)CO3)C[C@H]1OC` (relative stereo) is higher in melting point: 142 to 143 °C for the first, 188 °C for the second.

Compared with `CCOC(=O)CC(=O)NNC(=O)c1cc2cccc(N(C)S(=O)(=O)c3cccs3)c2[nH]1`, `CCC(CC)OC(=O)c1ccc(C(=O)NS(=O)(=O)c2cccc(C(=O)NCCc3ccccc3)c2)cn1` is higher in melting point: 119 to 121 °C for the first, 189 to 191 °C for the second.

Compared with `CCNC=C(C(=O)C=Cc1ccccc1)C(=O)OC`, `Cc1oc(-c2ccccc2)nc1CCC(=O)c1ccc(C=CC=O)cc1` is higher in melting point: 92 to 94 °C for the first, 119 to 120 °C for the second.

First: N#Cc1ccc(O)cn1
Second: O=C(O)c1ccnc(Br)c1
The melting point of the first is lower: 191 to 194 °C for the first, 214 °C for the second.

Compared with `Cc1cc2c(C(=O)C3=C(O)C4CCC(C4)C3=O)ccc(S(C)(=O)=O)c2o1` (stereo unspecified), `CC(C)(C)NC(=O)c1nn(-c2ccccc2)c2c1C1CCC2C1` (stereo unspecified) is lower in melting point: 258 to 259 °C for the first, 101 to 103 °C for the second.

First: COc1ccc(C=O)c(Br)c1
Second: COc1ccc2c(c1)C(=O)OC2C(Cl)(Cl)Cl (stereo unspecified)
The melting point of the first is lower: 73 to 74 °C for the first, 134 to 136 °C for the second.

First: CCOC(=O)c1csc(NC(=O)C(CC2CCCC2)c2ccc(NC(=O)c3cccnc3)cc2)n1 (stereo unspecified)
Second: CCN1C(=O)C(C(=O)Nc2cccc(C(=O)Nc3ccc(Cl)cc3)c2)c2cc(C(C)=O)ccc21 (stereo unspecified)
The melting point of the first is higher: 222 to 223 °C for the first, 119 to 121 °C for the second.

First: COC(=O)C=Cc1ccc(C)s1
Second: COc1ccc(S(C)=O)cc1C(=O)O (stereo unspecified)
The melting point of the first is lower: 59 to 60 °C for the first, 114 to 116 °C for the second.

Compared with `Cc1ccc(O)c(C(C)(C)CC(C)(C)C)c1`, `CSc1nccn1NCc1cc(C(C)(C)C)c(O)c(C(C)(C)C)c1` is higher in melting point: 42 to 45 °C for the first, 110 to 113 °C for the second.

Compared with `CC(O)(C(O)CBr)C(O)CBr` (stereo unspecified), `CS(=O)(=O)NC(=O)CCCCBr` is higher in melting point: 78 to 80 °C for the first, 88 to 89 °C for the second.

Compared with `COc1ccc(C2(C34CC5CC(CC(C5)C3)C4)N=C(N)N(C)C2=O)cc1` (stereo unspecified), `COc1c(CN2CCOCC2)cccc1-c1nc2c(N[C@H]3[C@@H](C(N)=O)[C@@H]4C=C[C@H]3C4)c(Cl)cnc2[nH]1` is lower in melting point: 150 to 155 °C for the first, 133 to 137 °C for the second.

First: Nc1ncc(-c2cccc(-n3cnc4cc(-c5ccco5)ccc43)c2)cn1
Second: c1ccc2cc(Cc3ncc(-c4ccc5cc(OCc6nnn[nH]6)ccc5c4)o3)ccc2c1
The melting point of the first is higher: 220 to 222 °C for the first, 179 to 182 °C for the second.

Compared with `CCOC(=O)NC1CCCCn2c1nc(-c1ccncn1)c(Br)c2=O` (racemic), `Cc1cc(-n2ccnc2)c2cccc(OCc3c(Cl)ccc(S(=O)(=O)N4CCCC4)c3Cl)c2n1` is higher in melting point: 72 to 74 °C for the first, 193 °C for the second.

First: COC(=O)C1CN=CN(C)C1 (stereo unspecified)
Second: CC(=O)NN1CC(C)=NNC1=O
The melting point of the first is lower: 93 to 95 °C for the first, 197 to 199 °C for the second.

First: CCCNC(=O)NS(=O)(=O)N1CCC(CCNC(=O)c2cc(Cl)ccc2OC)CC1
Second: CCNC(=O)CCCC1CCN(Cc2cnc3c(C)c(NC(=O)c4ccc(-c5ccc(F)cc5)cc4)ccc3c2)CC1
The melting point of the first is lower: 140 to 142 °C for the first, 217 to 220 °C for the second.

Compared with `O=[N+]([O-])c1oc2ccc(CCO)cc2c1-c1ccc(CO)cc1`, `CN(Cc1ccc2c(Br)c(O)ccc2c1)C(=O)c1oc2ccccc2c1CCc1ccccc1` is lower in melting point: 135 to 137 °C for the first, 108 to 110 °C for the second.

First: CCCC1CCCCc2c1oc(=O)c(C(c1ccccc1)C1CC1)c2O (stereo unspecified)
Second: Cc1cccc(C(C)C)c1NC(=O)NCC1(c2ccccc2)CCCC1
The melting point of the first is lower: 60 to 65 °C for the first, 157 to 159 °C for the second.

First: Cc1cc(S(=O)(=O)N2CC(C)CC(C)C2)ccc1[N+](=O)[O-] (stereo unspecified)
Second: O=[N+]([O-])c1ccc(Cl)cc1Nc1cccc(Cl)c1
The melting point of the first is higher: 133 to 138 °C for the first, 112 °C for the second.

First: O=C1[C@@H](O)CCN1CC#CCn1ccnc1
Second: N#Cc1ccc(OCCCN2CCN(C(CC(=O)O)c3cccnc3)C(=O)C2=O)cc1 (single isomer, unassigned; (-))
The melting point of the first is lower: 127 to 128 °C for the first, 199 to 200 °C for the second.

Compared with `CCC(CC)n1nc(C)c2c(NN3CCc4cc(Br)cc(Br)c43)nc(C)nc21`, `COC[C@H](C1CC1)n1cc(Cl)nc(Nc2cc(C)c(OC)nc2C)c1=O` is lower in melting point: 190 to 191 °C for the first, 99 to 100 °C for the second.

Compared with `O=C(Nc1ccc(C(=O)c2ccccc2)cc1)c1ccc(-c2ccccc2)cc1`, `CC(=CC(=O)c1ccccc1)NC(Cc1ccc(-c2cccc(CNCC(=O)c3ccccc3)c2)cc1)C(=O)O` (stereo unspecified) is lower in melting point: 212 to 213 °C for the first, 136 °C for the second.

Compared with `CCCC[C@]1(CC)CS(=O)(=O)c2cc(OC)c(Br)cc2[C@@H](c2ccccc2)N1O`, `CCCCCc1cc2c(nc(O)n2CCc2ccccc2)c(N)n1` is higher in melting point: 202 to 204 °C for the first, 238 to 240 °C for the second.

First: CCOC(=O)COc1cccc2c1oc1sc(Nc3ccccc3)nc12
Second: CP(C)(=O)COC(=O)c1ccccc1Nc1ccnc2c(C(F)(F)F)cccc12
The melting point of the first is higher: 196 to 198 °C for the first, 176 °C for the second.

First: O=C(c1ccc(F)cc1)C1CCN(CCN(C(=O)c2ccc([N+](=O)[O-])cc2)c2ccccc2C(F)(F)F)CC1
Second: O=C(O)c1ccc(CN(C2CCCCC2)S(=O)(=O)c2ccc(F)cc2)cc1
The melting point of the first is lower: 157 to 158 °C for the first, 218 to 220 °C for the second.

`CNn1cc(C(=O)O)c(=O)c2cc3c(cc21)OCO3` and `Cc1cc(-c2c(F)c(F)c3c(=O)c(C(=O)O)cn4c3c2OC[C@@H]4C)cc(C)n1` cannot be ordered by melting point: greater than 300 °C for the first, 307 to 310 °C for the second.

Compared with `NCCOc1ccc(/C(=C(\c2ccccc2)C(F)(F)F)c2ccccc2)cc1`, `C/C(=C\C=C(c1ccccc1)c1ccccc1)C(=O)NCCCCc1cccnc1` is higher in melting point: 71 to 76 °C for the first, 93 to 94 °C for the second.

Compared with `CCOC(=O)c1ccc2c(c1)nc(-c1c(Cl)cccc1Cl)n2C`, `COC(=O)Cn1c(-c2ccccc2Cl)nc2cccnc21` is higher in melting point: 164 to 166 °C for the first, 198 to 200 °C for the second.

First: O=C1Cc2cccc(S(=O)(=O)c3ccccc3)c2N1
Second: O=S1(=O)Cc2ccc(Cl)cc2C(c2cccc(F)c2)=NN1
The melting point of the first is higher: 217 to 220 °C for the first, 195 to 198 °C for the second.

Compared with `COc1ccc(C2CNCc3cc(C)ccc32)cc1OC` (stereo unspecified), `COc1cc(OC)c(C2CCN(C)C2CO)c(OC)c1` (stereo unspecified) is lower in melting point: 129 to 131 °C for the first, 82 to 85 °C for the second.

Compared with `NC(=O)c1ccc(Cl)c2c1C=C([N+](=O)[O-])CO2`, `C[C@]12CCC(=O)C=C1CCc1cc(Cl)ccc12` is lower in melting point: 225 to 227 °C for the first, 94 to 96 °C for the second.

Compared with `Cc1ccc(N2CSC(=NCC(F)(F)F)N(Cc3ccc(C(F)(F)F)cc3)C2=O)cc1`, `Cc1ccc(-c2nc(Cl)nc(Cl)c2-c2ccc(Cl)cc2)cc1` is higher in melting point: 62 to 63 °C for the first, 223 to 225 °C for the second.

Compared with `CC1=NN(C)C(=O)C1=Cc1ccc(Cl)cc1Cl`, `CC(C)c1ccc2nc[nH]c(=O)c2c1` is higher in melting point: 128 °C for the first, 147 °C for the second.

First: COCCNC(=O)c1cccc(-c2ccc(F)c3cc(Cc4cccc(S(C)(=O)=O)c4)sc23)c1
Second: CC(=O)Oc1ccc(C(=O)Nc2cccc(OCc3cccnc3)c2)cc1C(C)(C)C
The melting point of the first is higher: 158 to 159 °C for the first, 58 to 62 °C for the second.

Compared with `CS(=O)(=O)Oc1ccc(-c2cc3ccc(OS(C)(=O)=O)cc3s2)cc1`, `CN(c1ccc2ccccc2c1)c1nc(=O)c2cccnc2s1` is higher in melting point: 195 to 197 °C for the first, 230 to 232 °C for the second.

First: CCCCc1nc2c(N)nc3cc(Br)ccc3c2n1CC(C)C
Second: Cc1cccc2c1nc(COc1ccc(Cl)cc1)n2CCC(C)C(=O)Cl (stereo unspecified)
The melting point of the first is higher: 198 to 200 °C for the first, 140 to 142 °C for the second.

First: CCOC(=O)c1c(C)nc2snnc2c1NC(C)C
Second: CCc1ccc(C2COc3c(C)c(C)c(NC(=O)CC(C)(C)C)c(C)c32)cc1 (stereo unspecified)
The melting point of the first is lower: 62 to 65 °C for the first, 162 to 163 °C for the second.

First: N#CC(C#N)=C1N(CCCN2CCCCC2)CCN1C1CCN(Cc2ccccc2)CC1
Second: CC(C)Oc1ccccc1N1CCN(Cc2cccc(CC3NC(=O)NC3=O)c2)CC1 (stereo unspecified)
The melting point of the first is lower: 156 to 158 °C for the first, 178 to 181 °C for the second.

Compared with `Cc1[nH]n(C2CCCC2)c2nc(C3CCN(C(=O)C(F)(F)F)CC3)nc(=O)c1-2`, `CC(CCC(=O)O)C1CCC2C3C(=O)CC4CC(OC5CCCCO5)CCC4(C)C3CCC12C` (stereo unspecified) is lower in melting point: 219 to 221 °C for the first, 157 to 159 °C for the second.

First: CC(CCC(=O)N(C)C#N)C(=O)N(C)C#N (stereo unspecified)
Second: CN(C)CCn1c(=O)[nH]c2ccccc21
The melting point of the first is lower: 59.2 to 60.9 °C for the first, 106 to 108 °C for the second.

Compared with `ClCCCOc1cccc2cccnc12`, `Oc1nc(Cl)n(CCOc2ccccc2)n1` is higher in melting point: 69 to 71 °C for the first, 166 °C for the second.

First: CC1(C)O[C@@H]2[C@H](O1)[C@@H](CO)O[C@H]2n1cnc2c(N)nc(I)nc21
Second: Cn1c2nc3ccccc3nc2c2cccc(CO)c21
The melting point of the first is lower: 185 to 187 °C for the first, 237 to 238 °C for the second.

First: Cc1ccc2c(Sc3ccc(Cl)cc3)c(C(=O)O)[nH]c2c1
Second: Cc1cc(Cl)ccc1N=CN(C)SN(C)c1ccccc1
The melting point of the first is higher: 228 to 229 °C for the first, 65 to 67 °C for the second.

First: CCCCCCCCCCCCCCCCCCOc1cc(OCCCCC(=O)OC)cc(C(=O)O)c1
Second: CCCCCCc1cc2c(s1)-n1c(C)nnc1CN=C2c1cccc(C)c1C
The melting point of the first is lower: 68 to 70 °C for the first, 103 to 105 °C for the second.

First: Cc1c(CCCl)c(=O)oc2cc(O)cc(O)c12
Second: N#Cc1ccc2oc(CCCc3cc4cc(C#N)ccc4o3)cc2c1
The melting point of the first is higher: 218 to 220 °C for the first, 153 to 154 °C for the second.

Compared with `CCCNCC(=O)N1c2ccccc2N2CCc3cccc(c32)C1C` (stereo unspecified), `Nn1ccn(C2CCc3ccccc3C2)c1=S` (stereo unspecified) is higher in melting point: 113 to 118 °C for the first, 187 to 189 °C for the second.

First: OCCCSc1ccc2nccn2n1
Second: O=C(O)c1csc(-c2ncccc2O)n1
The melting point of the first is lower: 108 to 109 °C for the first, greater than 300 °C for the second.

First: CC(C)c1nc(COCc2ccccc2)n(Cc2ccccc2)c1Sc1cccc([N+](=O)[O-])c1
Second: N#Cc1cc2c(s1)-c1ccccc1OC2c1ccccc1 (stereo unspecified)
The melting point of the first is higher: 152 to 155 °C for the first, 138 to 140 °C for the second.

First: CC1(C)CON(Cc2cc(N3C(=O)C4=C(CCCC4)C3=O)c(F)cc2Cl)C1=O
Second: O=C1NC(=O)c2c1c(-c1ccccc1Cl)cc1c2cc(C(=O)O)n1CCCBr
The melting point of the first is lower: 136 to 138 °C for the first, 294 to 295 °C for the second.

Compared with `COC1=CC(=O)C=CC1=O`, `CN1CCCC1=Nc1ncnc2c1ncn2C1=CC(=O)CC1` is higher in melting point: 141 to 143 °C for the first, 200 to 205 °C for the second.

First: O=c1[nH]nc(Cl)cc1Br
Second: COC(=O)C1=C(C)NC(C)=C(C(=O)OCCN2CCN(c3ccc(F)cc3)CC2)C1c1cccc(Cl)c1 (stereo unspecified)
The melting point of the first is higher: 205 to 206 °C for the first, 44 to 49 °C for the second.

In the case of `CC(=O)OCC1OC(n2c3ncccc3c3c4c(c5c6ccccc6[nH]c5c32)C(=O)N(C)C4=O)C(OC(C)=O)C(OC(C)=O)C1OC(C)=O` (stereo unspecified), the melting point is reported as 302 to 304 °C.
